{
  "source": "patent US20100015147A1",
  "about": "(priority 2001, published 2010)",
  "key": {"mammalian neuraminidase": {"system": "mammalian neuraminidase", "details": "cultures of human macrophagic cells; cited from earlier work"}, "Swiss-Webster (SW) mice [1]": {"system": "Swiss-Webster (SW) mice", "type": "in vivo"}, "Swiss-Webster (SW) mice [2]": {"system": "Swiss-Webster (SW) mice", "assay": "Hot-water-immersion tail-flick antinociception assays with neuraminidase inhibitors (temperature not given)", "type": "in vivo"}, "Swiss-Webster (SW) mice [3]": {"system": "Swiss-Webster (SW) mice", "type": "in vivo", "details": "for effect on low-dose κ-opioid-induced hyperalgesia, compared with CTX-B cotreatment: 10 ng/kg U-50,488H plus ultralow (pg/kg) dose of antagonist"}, "Swiss-Webster (SW) mice [4]": {"system": "Swiss-Webster (SW) mice", "type": "in vivo", "remark": "listed apart in the source"}, "[5]": {"system": "male dental-pain patients", "details": "cited from earlier work"}, "Swiss-Webster (SW) mice [6]": {"system": "Swiss-Webster (SW) mice", "details": "low doses in naïve mice; cited from earlier work"}, "mice": {"system": "mice", "details": "cited from earlier work"}},
  "note": "Entries after “also recorded” stand apart in the source; their conditions may differ. Like-named read-outs stand apart in the source and are kept apart here.",
  "data": [
    {"compound": "O=S(=O)([O-])[O-].[Mg+2]", "note": "[MgSO4]", "values": [
      {"measurement": "effect on mammalian neuraminidase activity", "setting": "mammalian neuraminidase", "value": "potent inhibitory effects on mammalian neuraminidase activity"}
    ]},
    {"compound": "O=S(=O)([O-])[O-].[Na+].[Na+]", "note": "[Na2SO4]", "values": [
      {"measurement": "NLX-precipitated withdrawal hyperalgesia", "setting": "Swiss-Webster (SW) mice [1]; mouse, in vivo", "value": "prevented NLX-precipitated withdrawal hyperalgesia"},
      {"measurement": "results of antinociception assays compared with oseltamivir", "setting": "Swiss-Webster (SW) mice [2]; 3 μg/kg morphine plus 10 mg/kg Na2SO4", "value": "surprisingly similar"},
      {"measurement": "development of tolerance", "setting": "Swiss-Webster (SW) mice [2]; 10 mg/kg Na2SO4 plus 3 mg/kg morphine, daily injections for 5 days", "value": "prevented development of tolerance during daily injections for 5 days"},
      {"measurement": "effect on morphine analgesia", "setting": "Swiss-Webster (SW) mice [2]; chronic 10 mg/kg Na2SO4 plus 3 mg/kg morphine", "value": "enhanced analgesia"},
      {"measurement": "effect on mammalian neuraminidase activity", "setting": "mammalian neuraminidase", "value": "potent inhibitory effects on mammalian neuraminidase activity"}
    ]},
    {"compound": "CN1CC[C@]23c4c5ccc(O)c4O[C@H]2[C@@H](O)C=C[C@H]3[C@H]1C5", "note": "[morphine]", "values": [
      {"measurement": "effect on tail-flick latency, opioid alone", "setting": "Swiss-Webster (SW) mice [3]; 0.1 μg/kg morphine s.c. alone, control groups", "value": "marked hyperalgesia; also recorded: characteristic hyperalgesia"},
      {"measurement": "duration of decreases in tail-flick latencies (hyperalgesia) after drug injection", "setting": "Swiss-Webster (SW) mice [3]; 1 μg/kg morphine s.c. alone, 52° C., male mice", "value": "4 to 5", "unit": "h"},
      {"measurement": "time after opioid injection to hyperalgesia", "setting": "Swiss-Webster (SW) mice [3]; 1 mg/kg morphine s.c. alone, control group of female mice", "value": "≤ 2", "unit": "h"},
      {"measurement": "decreases in tail-flick latencies", "setting": "Swiss-Webster (SW) mice [3]; ca. 1 μg/kg morphine s.c. alone, 52° C.", "value": "1 to 2", "unit": "s"},
      {"measurement": "time course of antinociceptive effect, morphine alone", "setting": "Swiss-Webster (SW) mice [4]; 3 mg/kg morphine alone, 55° C.", "value": "sharply decreased after the first-hour peak"},
      {"measurement": "analgesic effects after chronic morphine alone (tolerance)", "setting": "Swiss-Webster (SW) mice [4]; daily 3 mg/kg morphine alone, 5 days", "value": "sharply decreased by 5 days"},
      {"measurement": "response after chronic morphine only", "setting": "Swiss-Webster (SW) mice [2]; morphine-only group, 5 days (FIG. 9)", "value": "marked hyperalgesia"}
    ]},
    {"compound": "Oc1ccc2c3c1O[C@H]1[C@@H](O)CC[C@@]4(O)[C@@H](C2)N(CC2CCC2)CC[C@]314", "note": "[nalbuphine]", "values": [
      {"measurement": "effect on pain within 1 h after injection", "setting": "[5]; nalbuphine 5 mg i.v.", "value": "hyperalgesia"}
    ]},
    {"compound": "C=CCN1CC[C@]23c4c5ccc(O)c4O[C@H]2C(=O)CC[C@@]3(O)[C@H]1C5", "note": "[naloxone]", "values": [
      {"measurement": "duration of NLX-evoked hyperalgesic response", "setting": "Swiss-Webster (SW) mice [1]; chronic morphine (e.g., 10 mg/kg for 5-6 days), withdrawal, 10 μg/kg NLX", "value": "more than 5 h"},
      {"measurement": "effect on baseline tail-flick latency", "setting": "Swiss-Webster (SW) mice [6]", "value": "did not alter the baseline tail-flick latency"},
      {"measurement": "effect on nalbuphine-induced hyperalgesia", "setting": "[5]; cotreatment with 0.5 mg naloxone", "value": "blocked"}
    ]},
    {"compound": "O=C1CC[C@@]2(O)[C@H]3Cc4ccc(O)c5c4[C@@]2(CCN3CC2CC2)[C@H]1O5", "note": "[naltrexone]", "values": [
      {"measurement": "effect on low-dose κ-opioid-induced hyperalgesia, compared with CTX-B cotreatment", "setting": "Swiss-Webster (SW) mice [3]", "value": "similar"},
      {"measurement": "effect on low-dose κ-opioid-induced hyperalgesia, compared with CTX-B cotreatment", "setting": "Swiss-Webster (SW) mice [3]; listed as NTX", "value": "comparable; also recorded: selectively blocked"},
      {"measurement": "block of low-dose morphine hyperalgesia and unmasking of analgesia, compared with CTXB cotreatment", "setting": "Swiss-Webster (SW) mice [3]; 1 μg/kg morphine plus 1 pg/kg (ultralow-dose) naltrexone", "value": "similar"},
      {"measurement": "effect on baseline tail-flick latency", "setting": "Swiss-Webster (SW) mice [6]", "value": "did not alter the baseline tail-flick latency"}
    ]},
    {"compound": "Oc1ccc2c3c1O[C@H]1c4[nH]c5c(c4C[C@@]4(O)[C@@H](C2)N(CC2CC2)CC[C@]314)C[C@@]1(O)[C@H]2Cc3ccc(O)c4c3[C@@]1(CCN2CC1CC1)[C@H]5O4", "note": "[nor-binaltorphimine]", "values": [
      {"measurement": "effect on low-dose κ-opioid-induced hyperalgesia, compared with CTX-B cotreatment", "setting": "Swiss-Webster (SW) mice [3]", "value": "comparable; also recorded: selectively blocked; also recorded: similar"}
    ]},
    {"compound": "CCOC(=O)C1=C[C@@H](OC(CC)CC)[C@H](NC(C)=O)[C@@H](N)C1", "note": "[oseltamivir]", "values": [
      {"measurement": "NLX-precipitated withdrawal hyperalgesia", "setting": "Swiss-Webster (SW) mice [1]; chronic cotreatment with morphine plus oseltamivir", "value": "prevented development of NLX-precipitated withdrawal hyperalgesia"},
      {"measurement": "time to development of morphine tolerance after withdrawal of oseltamivir", "setting": "Swiss-Webster (SW) mice [2]; FIG. 10", "value": "≤ 1", "unit": "days"},
      {"measurement": "development of opioid tolerance", "setting": "Swiss-Webster (SW) mice [2]; chronic cotreatment with morphine plus oseltamivir (FIGS. 8 and 9)", "value": "attenuates development of opioid tolerance"},
      {"measurement": "development of opioid tolerance", "setting": "Swiss-Webster (SW) mice [2]; chronic oseltamivir plus morphine for 3 days (FIG. 8)", "value": "prevents development of opioid tolerance"},
      {"measurement": "effect on analgesic potency of higher doses of morphine", "setting": "Swiss-Webster (SW) mice [2]; cotreatment with oseltamivir, male mice (FIG. 7)", "value": "markedly enhances the analgesic potency"},
      {"measurement": "effect on low-dose morphine-induced hyperalgesia", "setting": "Swiss-Webster (SW) mice [2]; morphine plus oseltamivir s.c., male mice (FIG. 6)", "value": "selectively blocks; also recorded: blocks low-dose, morphine-induced hyperalgesia"},
      {"measurement": "effect of adding oseltamivir to chronic morphine-tolerant mice", "setting": "Swiss-Webster (SW) mice [2]; oseltamivir added for 1 day (FIG. 10)", "value": "restores prominent analgesia"},
      {"measurement": "morphine analgesia after chronic cotreatment", "setting": "Swiss-Webster (SW) mice [2]; oseltamivir plus morphine, 5 days (FIG. 9)", "value": "still show prominent morphine (Mor) analgesia"}
    ]},
    {"compound": "dynorphin", "values": [
      {"measurement": "effect on tail-flick latency", "setting": "mice; dynorphin 0.5 μg/kg s.c., tested at 90 min post-injection", "value": "thermal hyperalgesia"},
      {"measurement": "effect on tail-flick latency", "setting": "mice; dynorphin 50 μg/kg", "value": "analgesia"}
    ]}
  ]
}
